Laboratory results from patent publication US5593982A, “Cyclopentanperhydrophenanthren-17β-(3-furyl)-3-derivatives and pharmaceutical compositions comprising same for the treatment of cardiovascular disorders” (Sigma-Tau Industrie Farmaceutiche Riunite S.p.A., priority 1992, dated 1997).
Where a name gives a salt, the structure may show the parent alone. Read-outs that look alike come from different tables or passages of the source.

How the values were obtained:
[1] = target: T1, Na^+,K^+ -ATPase receptor (Canis lupus familiaris, UniProt P50997); experiment: displacement of the specific 3H-ouabain binding from the purified Na+,K+-ATPase receptor
T1 construct: from tissue; mammalian kidney outer medulla by the cited Jorgensen 1974 method (own knowledge)
Source text: (§1) To test the affinity for the receptor site of the Na^+,K^+ -ATPase and the agonist or antagonist activity on the enzyme, the following tests were used: a) displacement of the specific ^3 H-ouabain binding from the Na^+,K^+ -ATPase receptor purified according to Jorghensen (Jorghensen P., BBA, 1974, 356, 36) and Erdmann (Erdmann E. et al., Arzneim. Forsh., 1984, 34, 1314); b) inhibition of the activity of the purified Na^+,K^+ -ATPase measured as % of hydrolysis of ^32 P-ATP in presence and in absence of the tested compound (Mall F. et al., Biochem. Pharmacol., 1984, 33, 47).

[2] = target: T2, purified Na^+,K^+ -ATPase (Canis lupus familiaris, UniProt P50997); experiment: inhibition of the activity of the purified Na+,K+-ATPase measured as % of hydrolysis of 32P-ATP; format: biochemical
T2 construct: from tissue; mammalian kidney outer medulla by the cited Jorgensen 1974 method (own knowledge)
Source text: as §1

[3] = hydrolysis of 32P-ATP, purified Na+,K+-ATPase, read-out: Inhibitory Activity log IC50 (converted)
[4] = displacement of specific 3H-ouabain binding, purified Na+,K+-ATPase, read-out: Binding 3H-Ouab. Displacement log IC50 (converted)

| Structure (SMILES) | IC50 [1] [nM] | IC50 [2] [nM] | IC50 [2, 3] [nM] | IC50 [1, 4] [nM] |
| --- | --- | --- | --- | --- |
| C[C@]12CC[C@H](OCCN3CCCC3)C=C1CC[C@@H]1[C@@H]2CC[C@]2(C)[C@@H](c3ccoc3)C[C@H]3O[C@]132 [Comp. I-bc, 3β-(2-(1-Pyrrolidinyl)ethoxy)-14β,15β-epoxy-17β-(3-furyl)-androst-4-ene] | 316 | 2000 | – | – |
| C[C@]12CC[C@H](OCCCN3CCNCC3)C[C@H]1CC[C@@H]1[C@@H]2CC[C@]2(C)[C@@H](c3ccoc3)CC[C@]12O [Comp. I-af, 3β-(3-(1-Piperazinyl)propoxy)-17β-(3-furyl)-5.β-androstan-14β-ol] | 100 | – | 1260 | – |
| C[C@]12CC[C@H](OCCCN)CC1=CC[C@@H]1[C@@H]2CC[C@]2(C)[C@@H](c3ccoc3)CC[C@]12O [Comp. I-av, 3β-(3-Aminopropoxy)-17β-(3-furyl)-androst-5-en-14β-ol] | – | 2510 | – | 631 |
| CNCCO[C@H]1CC[C@@]2(C)[C@H](CC[C@@H]3[C@@H]2CC[C@]2(C)[C@@H](c4ccoc4)CC[C@]32O)C1 [Comp. I-an, 3β-(2-Methylaminoethoxy)-17β-(3-furyl)-5β-androstan-14β-ol] | 200 | 1580 | – | – |
| C[C@]12CC[C@H](OCC[N+]3(C)CCCC3)C[C@H]1CC[C@@H]1[C@@H]2CC[C@]2(C)[C@@H](c3ccoc3)CC[C@]12O [Comp. I-ak, 3β-(2-(N-methyl-1-pyrrolydinium)ethoxy)-17β-(3-furyl)-5β-androstan-14β-ol iodide] | 158 | – | 1260 | – |
| C[C@]12CC[C@H](OCCOCCCN3CCCC3)C[C@H]1CC[C@@H]1[C@@H]2CC[C@]2(C)[C@@H](c3ccoc3)CC[C@]12O [Comp. I-da, 3β-(2-(3-(1-Pyrrolidinyl)propoxy)ethoxy)-17β-(3-furyl)-5β-androstan-14β-ol] | 316 | 1580 | – | – |
| C[C@]12CC[C@H](SCCCN)C[C@H]1CC[C@@H]1[C@@H]2CC[C@]2(C)[C@@H](c3ccoc3)C[C@H]3O[C@]132 [Comp. I-cj, 3β-(3-Aminopropylthio)-14β,15β-epoxy-17β-(3-furyl)-5β-androstane oxalate] | 2000 | 6310 | – | – |
| CN(C)CCCOCCO[C@H]1CC[C@@]2(C)[C@H](CC[C@@H]3[C@@H]2CC[C@]2(C)[C@@H](c4ccoc4)CC[C@]32O)C1 [Comp. I-aj, 3β-(2-(3-Dimethylaminopropoxy)-ethoxy)-17β-(3-furyl)-5β-androstan-14β-ol] | 158 | – | 1260 | – |
| C[C@]12CC[C@H](OCCOCCN3CCCC3)C[C@H]1CC[C@@H]1[C@@H]2CC[C@]2(C)[C@@H](c3ccoc3)CC[C@]12O [Comp. I-ah, 3β-(2-(2-(1-Pyrrolidinyl)ethoxy)ethoxy)-17β-(3-furyl)-5β-androstan-14β-ol] | 158 | 794 | – | – |
| CO[C@]12CC[C@H](c3ccoc3)[C@@]1(C)CC[C@H]1[C@H]2CC[C@@H]2C[C@@H](OCCN3CCCC3)CC[C@@]21C [Comp. I-as, 3β-(2-(1-Pyrrolydinyl)ethoxy)-14β-methoxy-17β-(3-furyl)-5β-androstane oxalate] | – | – | 25100 | 5010 |
| C[C@]12CC[C@H](OCCN3CCCC3)C[C@H]1CC[C@@H]1[C@@H]2CC[C@]2(C)[C@@H](c3ccoc3)CC[C@]12O [Comp. I-ad, 3β-(2-(1-Pyrrolydinyl)ethoxy)-17β-(3-furyl)-5β-androstan-14β-ol] | 158 | 1000 | – | – |
| CO[C@]12CC[C@H](c3ccoc3)[C@@]1(C)CC[C@H]1[C@H]2CC[C@@H]2C[C@@H](OCCCN)CC[C@@]21C [Comp. I-ar] | – | – | 25100 | 3160 |
| C[C@]12CC[C@H](OCCCN)C=C1CC[C@@H]1[C@@H]2CC[C@]2(C)[C@@H](c3ccoc3)CC[C@]12O [Comp. I-at, 3β-(3-Aminopropoxy)-17β-(3-furyl)-androst-4-en-14β-ol] | – | 2510 | – | 631 |
| C[C@]12CC[C@H](SCCN3CCCC3)C=C1CC[C@@H]1[C@@H]2CC[C@]2(C)[C@@H](c3ccoc3)CC[C@]12O [Comp. I-ce, 3β-(2-(1-Pyrrolidinyl)ethylthio)-17β-(3-furyl)-androst-4-en-14β-ol oxalate] | 1000 | 3160 | – | – |
